Experimental findings from US9523109B2, “Method for enzymatically preparing peptides for use in improvement of brain function” (CALPIS CO., LTD., priority 2011, dated 2016) are described below.

Where no end group is shown, it is not given here.

Assay [1] deals with scopolamine-induced amnesia. The assay is described as follows: Y-shaped maze test (spontaneous alternation behavior) after scopolamine-induced brain dysfunction. The settings on record: scopolamine 1 mg/kg s.c. In kind it is in vivo, Male ddY mice. The procedure: Male ddY mice (about 7 weeks old) were used (n=15 to 75), and provided with food and water ad libitum. Asn-Ile-Pro-Pro-Leu-Thr-Gln-Thr-Pro-Val-Val-Val-Pro-Pro-Phe-Leu-Gln-Pro-Glu (SEQ ID NO: 1) was used as a test substance in amounts of 0.05 nmol/kg body weight (0.1 μg/kg body weight), 0.5 nmol/kg body weight (1 μg/kg body weight), 1.5 nmol/kg body weight (3 μg/kg body weight), 5 nmol/kg body weight (10 μg/kg body weight), 50 nmol/kg body weight (100 μg/kg body weight), and 500 nmol/kg body weight (1,000 μg/kg body weight). The test substance was administered as a single dose orally to mice 60 minutes before performing a Y-shaped maze test for evaluating spontaneous alternation behavior. Thirty minutes before performing the Y-shaped maze test, scopolamine was subcutaneously administered in an amount of 1 mg/kg body weight into the back to induce brain dysfunction (memory disorder and/or cognition disorder) in mice. In the Y-shaped maze test, as an experiment device, a Y-shaped maze was used in which the length for each arm was 40 cm; the wall height was 12 cm; the floor width was 3 cm; the upper part width was 10 cm; and three arms were connected to each other at an angle of 120°. Each mouse was placed in the end of any of the alms of the Y-shaped maze and allowed to explore freely in the maze over 8 minutes, and the sequence of the arms to which the mouse moved was recorded. The number of movements of the mouse to the arms within the measurement time was counted and used as the total number of entries; in the sequence, the combination in which three different arms were selected in succession (for example, with the three arms respectively called A, B, and C, if the sequence of the arms entered is ABCBACACB, the count is 4 inclusive of overlapping) was investigated, and the count number was used as the number of spontaneous alternation behaviors. The change in spontaneous alternation behavior (%) was calculated by dividing the number of spontaneous alternation behaviors by a number obtained by subtracting 2 from the total number of entries, and multiplying the resultant number by 100, and the percentage was used as an indicator of the spontaneous alternation behavior. […] The measured values were expressed as mean±standard error for each group. The significance of difference between the control group and the scopolamine control group was tested by Student's t-test. […]
Male ddY mice (about 7 weeks old) were used (n=15 to 45), and provided with food and water ad libitum. […] Each mouse was placed in the end of any of the arms of the Y-shaped maze and allowed to explore freely in the maze over 8 minutes, and the sequence of the arms to which the mouse moved was recorded. […]

The subject of assay [2] is memory retention. The assay can be described thus: novel object recognition test for evaluating memory retention. In kind it is in vivo, Male ddY mice. The note with it: Example 6, FIG. 7; single oral dose 500 nmol/kg body weight (1,000 μg/kg) 60 min before training trial; retention trial 48 hours later. The procedure:
Male ddY mice (about 7 weeks old) were used (n=14 to 15), and provided with food and water ad libitum. As a test substance, 500 nmol/kg body weight (1,000 μg/kg body weight) of Asn-Ile-Pro-Pro-Leu-Thr-Gln-Thr-Pro-Val-Val-Val-Pro-Pro-Phe-Leu-Gln-Pro-Glu (SEQ ID NO: 1) was used. The test substance was administered as a single dose orally to mice 60 minutes before performing a novel object recognition test for evaluating memory retention. In the novel object recognition test, a 30×30×30 cm box was used as an experiment device. As a conditioning operation, a mouse was placed in an experiment device in which a floorcloth was laid for 5 minutes, and allowed to explore freely in the device. A training trial was performed the day following the conditioning operation. […] Sixty minutes after orally administering the test substance or water, a mouse was placed in the experiment device for 5 minutes, and the time (second) was measured during which the mouse explored by approaching each object to be within 1 cm therefrom. […] (However, the state in which a mouse rides on an object is excluded.) The percentages of the times were determined during which two objects were explored in each of the training trial and the retention trial. The percentage (%) of the exploration time for each object was expressed as mean±standard error for each of the groups. […]

[3] abbreviates: Example 5, FIG. 6, single oral dose 50 nmol/kg body weight 60 min before test.

Turning to NIPPLTQTPVVVPPFLQPE [SEQ ID NO: 1], the “amnesia-preventing action (change in spontaneous alternation behavior)” value was “amnesia-preventing action” in assay [1] (Example 4, FIG. 5, single oral dose 60 min before test, range 0.05 nmol/kg body weight to 500 nmol/kg body weight (0.1 to 1,000 μg/kg)) and “amnesia-preventing action” in assay [1] (setting [3]). In addition, the “memory-enhancing action (percentage of exploration time for novel object)” value in assay [2] was “memory-enhancing action”. Turning to SWMHQPHQPLPPTVMFPPQSVL [SEQ ID NO: 3], in assay [1] (Example 7, FIG. 8, single oral dose 150 nmol/kg body weight to 500 nmol/kg body weight (380 to 1,280 μg/kg)), the “amnesia-preventing action (change in spontaneous alternation behavior)” value is listed as “amnesia-preventing action”.

Take NIPPLTQTPVVVPPFLQPEVM [SEQ ID NO: 2]: the “amnesia-preventing action (change in spontaneous alternation behavior)” value in assay [1] (setting [3]) is “amnesia-preventing action”.
